# Experimental data: patent US11976058B2, “Aromatic derivatives, preparation methods, and medical uses thereof” (Bioardis LLC, priority 2019, dated 2024)
# Where two headings read alike, the source gives them in different places.
# Legend:
# [1] = system: Hep3B cells; assay: Cell-based FGFR4 proliferation assay (CellTiter-Glo); details: incubated with test compound for 3 days, CellTiter-Glo luminescence, read-out: Potency (IC50), Hep3B cell proliferation
# Experimental: Hepatocellular carcinoma cell line Hep3B (ATCC, Cat #HB-8064) were cultured at 37° C., 5% CO2 in ATCC-formulated Eagle's Minimum Essential Medium supplemented with 10% fetal bovine serum; 1% Penicillin-Streptomycin.
# (§1) Cell line: Hepatocellular carcinoma cell line Hep3B (ATCC, Cat #HB-8064).
# In this assay, Hep3B cells are seeded in 384-well microplates, and after exposure to experimental compounds for […], CellTiter-Glo® Luminescent Cell Viability Assay kit (Promega, Cat #G7572) are used to determine the number of viable cells in the culture based on quantitation of the ATP present, which signals the presence of metabolically active cells. Luminescent signal is proportional to the amount of ATP present. The amount of ATP is directly proportional to the number of cells present in the culture, allowing drug-induced effects on cell proliferation to be measured.
# Hep3B cells were plated at a density of 4×10^4/ml cells in a 384-well black/clear microplate with 20 μL per well of MEM Medium (Gibco Cat. #11095-080) supplemented with 10% fetal bovine serum; 1% Penicillin-Streptomycin, and cultured overnight at 37° C., 5% CO2. Various concentrations of the test compound (dissolved in 100% DMSO) were added to the wells of the cell plate. The cells were incubated with the test compound for 3 days at 37° C., 5% CO2. 5 μL of CellTiter-Glo® Reagent was added to each well of the cell plate. The cell plate was incubated for 5 min at 25° C. on a plate shaker (IKA MTS 2/4) at 300 rpm. Luminescence signals were read on a TECAN Spark 10M instrument (TECAN). […] The concentrations and percent inhibition values for a test compound were plotted and the concentration of the compound required to achieve 50% inhibition (IC50) is determined with a four-parameter logistic dose response equation. Dose-response curves were generated using Prism (GraphPad Software, La Jolla, CA, US) to calculate IC50 values for each compound tested.
# [2] = system: MAPK phosphorylation in Hep3B cells stimulated with FGF19; assay: FGFR4 pMAPK AlphaLISA SureFire Ultra assay; format: cell-based; details: serum-starved, compound 1 hour, FGF19 100 ng/ml for 4 hours, read-out: Potency (IC50), FGFR4 pMAPK AlphaLISA
# Source text: as §1
# In normal liver, circulating FGF19 drives liver cell proliferation and regulates bile acid production. However aberrant expression of FGF19 in the liver drives HCC tumorigenesis, upregulates MAPK phosphorylation in FGF19-amplified malignant liver cells. AlphaScreen SureFire technology allows the detection of phosphorylated proteins in cellular lysates in a highly sensitive, quantitative assay. In these assays, sandwich antibody complexes, which are only formed in the presence of analyte, are captured by AlphaScreen Donor and Acceptor beads, bringing them into close proximity. The excitation of the Donor bead provokes the release of singlet oxygen molecules that triggers a cascade of energy transfer in the Acceptor beads, resulting in the emission of light at 520-620 nm.
# Hep3B cells were plated at a density of 1×10^4/ml cells in a 96-well plate (Corning #3599), with 100 uL per well of MEM Medium (Gibco Cat #11095-080) supplemented with 10% fetal bovine serum; 1% Penicillin-Streptomycin, and cultured overnight at 37° C., 5% CO2. Starve Hep3B cells in serum-free medium (SFM) supplemented with 0.2% BSA and incubate the cells again overnight at 37° C., 5% CO2. Various concentrations of the test compound (prepared in 2x SFM) were added to the wells of the cell plate and then incubated for 1 hour at 37° C., 5% CO2. 50 μL of FGF19 in SFM was added to each well of the cell plate with a final FGF19 concentration of 100 ng/ml, and cells treated with FGF19 were stimulated for 4 hours at 37° C., 5% CO2. 5 μL of freshly prepared Donor Mix and Acceptor Mix were sequentially added to the cell plate, each followed with 1 hour of incubation at 25° C., 5% CO2. Read the cell plate on an Alpha Technology-compatible plate reader at 570 nm AlphaScreen, using standard AlphaLISA settings. The percent (%) inhibition=((ZPE−Alpha-Signal)/(ZPE−HPE))*100% where the meanings of HPE and ZPE are as provided below.
# HPE: Hundred Percent Effect, negative control well without FGF19 nor compound. Final concentration of DMSO is 0.1%.
# ZPE: Zero Percent Effect, positive control well without compound. Final concentration of FGF19 is 100 ng/mL, DMSO is 0.1%.
# The concentrations and percent inhibition values for a test compound were plotted and the concentration of the compound required to achieve 50% inhibition (IC50) was determined with a four-parameter logistic dose response equation. Dose-response curves were generated using Prism (GraphPad Software, La Jolla, CA, US) to calculate IC50 values for each compound tested.
# [3] = biological target: T1, human FGFR4 (Homo sapiens, UniProt P22455); assay: FGFR4 enzymatic assay (HTRF KinEASE-TK); format: biochemical; details: wild-type human FGFR4 cytoplasmic domain (460-802), GST-tag; 60 min preincubation at 25° C.; ATP 200 μM; read-out: Potency (IC50), FGFR4 enzymatic assay
# T1 construct: human FGFR4 cytoplasmic domain (460-802); GST (N); purchased Carna Biosciences 08-136
# T1 sequence (P22455 460-802): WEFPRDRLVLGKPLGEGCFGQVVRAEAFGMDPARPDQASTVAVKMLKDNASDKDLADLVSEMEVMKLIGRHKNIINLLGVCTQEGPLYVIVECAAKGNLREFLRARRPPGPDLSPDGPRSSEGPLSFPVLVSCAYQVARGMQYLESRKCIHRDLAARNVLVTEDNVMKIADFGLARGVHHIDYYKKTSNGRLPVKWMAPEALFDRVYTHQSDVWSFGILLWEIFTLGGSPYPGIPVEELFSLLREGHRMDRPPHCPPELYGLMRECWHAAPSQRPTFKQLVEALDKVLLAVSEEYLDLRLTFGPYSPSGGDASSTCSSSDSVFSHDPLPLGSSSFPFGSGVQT
# Outline: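 GST-tagged FGFR4 cytoplasmic domain (460-802) at 0.25 μg/ml, preincubated with compound 60 min at 25 °C in HEPES pH 7.0 buffer, then reacted 40 min at 37 °C with 0.3 μM biotin-TK peptide and 200 μM ATP. HTRF detection (665/612 nm) after 60 min; IC50 by four-parameter logistic fit.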
Compound,IC50 [1] [nM],IC50 [2] [nM],IC50 [3] [nM],"IC50 ([2]; Homo sapiens, Hep3B) [nM]","IC50 ([1]; Homo sapiens, Hep3B, 72 h) [nM]"
"[2H]C([2H])([2H])Oc1cc(OC([2H])([2H])[2H])c(F)c(C2CCc3c(-c4c(NC(=O)C=C)cnn4C)n[nH]c3C2)c1 (single isomer, unassigned) [Compound S8-P4, N-(5-(6-(2-fluoro-3,5-bis(methoxy-d3)phenyl)-4,5,6,7-tetrahydro-1H-indazol-3-yl)-1-methyl-1H-pyrazol-4-yl) acrylamide]",> 100,10 to 100,10 to 100,–,–
"C=CC(=O)Nc1ncn(C)c1-c1n[nH]c2c1CCC(c1c(F)c(OC)cc(OC)c1F)C2 (single isomer, unassigned) [Compound S3-P2, N-(5-(6-(2,6-Difluoro-3,5-dimethoxyphenyl)-4,5,6,7-tetrahydro-1H-indazol-3-yl)-1-methyl-1H-imidazol-4-yl) Acrylamide]",> 100,–,10 to 100,> 100,–
"C=CC(=O)Nc1cnn(C(C)C)c1-c1n[nH]c2c1CCC(c1c(F)c(OC)cc(OC)c1F)C2 (single isomer, unassigned) [Compound S17-P1, N-(5-(6-(2,6-difluoro-3,5-dimethoxyphenyl)-4,5,6,7-tetrahydro-1H-indazol-3-yl)-1-isopropyl-1H-pyrazol-4-yl)acrylamide]",> 100,–,10 to 100,10 to 100,–
"C=CC(=O)Nc1c[nH]nc1-c1n[nH]c2c1CCC(c1cc(OC)cc(OC)c1F)C2 (single isomer, unassigned) [Compound S15-P3, N-(3-(6-(2-fluoro-3,5-dimethoxyphenyl)-4,5,6,7-tetrahydro-1H-indazol-3-yl)-1H-pyrazol-4-yl)acrylamide]",–,–,10 to 100,< 10,10 to 100
"[2H]C([2H])([2H])Oc1cc(OC([2H])([2H])[2H])c(F)c(C2CCc3c(-c4c(NC(=O)C=C)cnn4C)n[nH]c3C2)c1 (single isomer, unassigned) [Compound S8-P3, N-(5-(6-(2-fluoro-3,5-bis(methoxy-d3)phenyl)-4,5,6,7-tetrahydro-1H-indazol-3-yl)-1-methyl-1H-pyrazol-4-yl) acrylamide]",–,–,10 to 100,10 to 100,> 100
"C=CC(=O)Nc1cn(C)nc1-c1n[nH]c2c1CCCC(c1cc(OC)cc(OC)c1F)C2 (single isomer, unassigned) [Compound S12-P3, N-(3-(7-(2-fluoro-3,5-dimethoxyphenyl)-1,4,5,6,7,8-hexahydrocyclohepta[c]pyrazol-3-yl)-1-methyl-1H-pyrazol-4-yl) acrylamide]",–,–,10 to 100,< 10,10 to 100

# Second part, the compound after the results:
IC50 [1] [nM],IC50 [2] [nM],IC50 [3] [nM],"IC50 ([2]; Homo sapiens, Hep3B) [nM]","IC50 ([1]; Homo sapiens, Hep3B, 72 h) [nM]",Compound
> 100,10 to 100,10 to 100,–,–,"[2H]C([2H])([2H])n1ncc(NC(=O)C=C)c1-c1n[nH]c2c1CCC(c1cc(OC)cc(OC)c1F)C2 (single isomer, unassigned) [Compound S16-P4, N-(5-(6-(2-fluoro-3,5-dimethoxyphenyl)-4,5,6,7-tetrahydro-1H-indazol-3-yl)-1-(methyl-d3)-1H-pyrazol-4-yl)acrylamide]"
10 to 100,< 10,< 10,–,–,"[2H]C([2H])([2H])Oc1cc(OC([2H])([2H])[2H])c(F)c(C2CCc3c(-c4c(NC(=O)C=C)cnn4C)n[nH]c3C2)c1F (single isomer, unassigned) [Compound S8-P2, N-(5-(6-(2,6-difluoro-3,5-bis(methoxy-d3)phenyl)-4,5,6,7-tetrahydro-1H-indazol-3-yl)-1-methyl-1H-pyrazol-4-yl) acrylamide]"
–,–,< 10,< 10,10 to 100,"C=CC(=O)Nc1cn[nH]c1-c1n[nH]c2c1CCCC(c1cc(OC)cc(OC)c1F)C2 (single isomer, unassigned) [Compound S11-P3, N-(5-(7-(2-fluoro-3,5-dimethoxyphenyl)-1,4,5,6,7,8-hexahydrocyclohepta[c]pyrazol-3-yl)-1H-pyrazol-4-yl)acrylamide]"
–,–,< 10,< 10,10 to 100,"C=CC(=O)Nc1cn(C)nc1-c1n[nH]c2c1CCC[C@H](c1c(F)c(OC)cc(OC)c1F)C2 (single isomer, unassigned) [Compound S12-P1]"
